Measurements: US8623909B2, “Prophylactic/therapeutic agents for lifestyle-related diseases” (priority 2008, dated 2014)
Marks after values point to notes of the source that are not given here.

What was measured:
FAS mRNA = FAS mRNA level in liver and visceral fat of ORX rats; assay type: in vivo, rat
Source text: (§1) After housing the animals, the animals were anesthetized with ether, and underwent bilateral orchiectomy (orchiectomized rats: ORX) or a sham treatment. After awaking from the anesthesia, the animals were assigned to test groups of 3 to 5 animals each. […] After 21 days, the rats were sacrificed by exsanguination from the abdominal artery, the ventral prostates and anal levator muscle were excised and weighed followed by immersing in RNAlater (Nacalai Tesque) for extraction of RNA. In addition, soft tissue was removed from the right femur, and immersed in 75% ethanol followed by storage for subsequent measurement of the bone mineral density. Moreover, liver and visceral fat tissue were collected and immersed in RNAlater for RNA extraction.
(§2) Total RNA in various tissues of the ORX rats was isolated using the RNeasy Mini Kit or RNeasy Fibrous Tissue Mini Kit (Qiagen). 1 μg of this total RNA was subjected to reverse transcription using the QuantiaTect Reverse Transcription Kit (Qiagen). Next, cDNA was subjected to real-time PCR analysis using LightCycler (Roche Diagnostics) and each of the transcription products was quantified. Furthermore, PCR was carried out in 20 μl of a reaction mixture under the following conditions using SYBR Premix Ex Taq (Takara Biotechnology): 50 cycles consisting of denaturation for 5 seconds at 95° C., annealing for 20 seconds at 60° C. and elongation for 25 seconds at 72° C. In addition, glyceraldehyde-3-phosphate dehydrogenase (GAPDH) mRNA was simultaneously amplified as an internal standard, and the real-time PCR value of each transcription product were calculated as a relative value based on GAPDH.
(§3) In addition, mRNA levels of insulin receptor substrate 2 (IRS-2) in the liver were also measured.

UCP-1 mRNA = UCP-1 mRNA level in visceral fat of ORX rats; assay type: in vivo, rat; settings: for UCP-1 mRNA/GAPDH mRNA level in rat visceral fat: solvent 1.0, sham 1.0
Method: (§4) 11-week-old, male Sprague-Dawley (SD) rats (320 to 340 g, purchased from Charles River Japan) were housed for 1 week in a room maintained at a light-dark cycle of 12 hours per day and controlled at a set temperature and humidity while allowing free access to a commercially available standard rodent diet and water.
(§5) After housing the animals, the animals were anesthetized with ether, and underwent bilateral orchiectomy (orchiectomized rats: ORX) or a sham treatment. After awaking from the anesthesia, the animals were assigned to test groups of 3 to 5 animals each. Starting on the day after surgery, the animals were subcutaneously injected once a day with an injection solution of the test compound (prepared by dissolving the test compound in a small amount of DMSO and diluting with olive oil for animal testing (consisting of 95% olive oil and 5% DMSO)) at the rate of 0.1 ml/100 g of body weight. After 21 days, the rats were sacrificed by exsanguination from the abdominal artery, the ventral prostates and anal levator muscle were excised and weighed followed by immersing in RNAlater (Nacalai Tesque) for extraction of RNA. In addition, soft tissue was removed from the right femur, and immersed in 75% ethanol followed by storage for subsequent measurement of the bone mineral density. Moreover, liver and visceral fat tissue were collected and immersed in RNAlater for RNA extraction.
as §2
Thus, UCP-1 mRNA levels in rat visceral fat were also measured for the purpose of confirmation.

ORX rats [1] = test: Prostate weight in ORX rats (virilization effect); assay type: in vivo, rat; settings: for Prostate weight: 21 days, solvent 10.2, sham 132.5; for Change in prostate weight (in words): doses of 1 to 10 mg/kg body weight
Method: The virilization effect of compounds was studied by using the changes in prostate weight during administration of the compounds to ORX rats as an indicator of virilization effect.
as §4, §5

SREBP-1c mRNA = SREBP-1c mRNA level in liver and visceral fat of ORX rats; assay type: in vivo, rat
Source text: as §1, §2, §3

ORX rats [2] = test: Plasma FSH concentration in ORX rats; assay type: in vivo, rat; settings: for Effect on FSH levels (in words): dose of 1 or 10 mg/kg; for Plasma FSH concentration: solvent 44.1, sham 12.1
Source text: as §1
(§6) Characteristics of the effect of compounds on the pituitary gland were investigated by measuring plasma concentrations of LH and FSH in ORX rats treated in the aforementioned section (4)-1).

CPT-1 mRNA = CPT-1 mRNA level in liver and visceral fat of ORX rats; assay type: in vivo, rat
Source text: as §1, §2, §3

PSA mRNA = PSA mRNA expression level in ORX rat prostates; assay type: in vivo; settings: ORX rats; for PSA mRNA/GAPDH mRNA in prostates: 21 days, solvent 1.0, sham 114.4
Source text: as §1, §2
The PSA mRNA expression levels in the prostates of the ORX rats obtained in the aforementioned section (4)-1) were measured according to the method of section (4)-3).

ORX rats [3] = test: Femoral bone mineral density in ORX rats; assay type: in vivo, rat; settings: solvent 465.3, sham 517.1
Method: as §4, §5
(§7) The anabolic effect of compounds was studied by using as indicators changes in anal levator muscle weight and bone mineral density (BMD) of the femur and vertebra in the ORX rats treated in the aforementioned section (4)-1).
(§8) BMD value of epiphyseal cancellous bone of the femur and vertebra of ORX rats treated in the aforementioned section (4)-1) were measured using Scan Xmate-A100S (Comscantecno).

ORX rats [4] = test: Vertebral bone mineral density in ORX rats; assay type: in vivo, rat; settings: for Vertebral BMD: solvent 762.7, sham 770.8
Method: as §4, §5, §7, §8

ORX rats [5] = test: Plasma LH concentration in ORX rats; assay type: in vivo, rat; settings: for Effect on LH levels (in words): 1 and 10 mg/Kg; for Plasma LH concentration: solvent 10.3, sham 1.7
Source text: as §1, §6

ORX rats [6] = test: Plasma cholesterol level in ORX rats; assay type: in vivo, rat; settings: for Effect on cholesterol levels (in words): 1 and 10 mg/Kg; for Plasma cholesterol concentration: solvent 78.0, sham 64.8
Source text: as §1
Plasma triglyceride and cholesterol levels were measured to characterize the metabolic profiles of ORX rats treated in the aforementioned section (4)-1).

ORX rats [7] = test: Plasma insulin level in ORX rats; assay type: in vivo, rat; settings: for Effect on insulin levels (in words): 1 and 10 mg/Kg; for Plasma insulin concentration: solvent 1.0, sham 1.6
Source text: as §1
The inventors of the present invention measured total plasma adiponectin levels in ORX rats treated in the aforementioned section (4)-1). Plasma insulin levels were also measured simultaneously.

[8] = liver, 1 mg/Kg, solvent 0.9, sham 1.0
[9] = liver, 10 mg/Kg, solvent 0.9, sham 1.0
[10] = visceral fat, 1 mg/Kg, solvent 0.5, sham 1.0
[11] = visceral fat, 10 mg/Kg, solvent 0.5, sham 1.0
[12] = liver, 1 mg/Kg, solvent 0.7, sham 1.0
[13] = liver, 10 mg/Kg, solvent 0.7, sham 1.0
[14] = visceral fat, 1 mg/Kg, solvent 1.0, sham 1.0
[15] = visceral fat, 10 mg/Kg, solvent 1.0, sham 1.0
[16] = liver, 1 mg/Kg, solvent 1.4, sham 1.0
[17] = liver, 10 mg/Kg, solvent 1.4, sham 1.0
[18] = visceral fat, 1 mg/Kg, solvent 1.7, sham 1.0
[19] = visceral fat, 10 mg/Kg, solvent 1.7, sham 1.0

## C[C@]12CCC(=O)C[C@@H]1CC[C@@H]1[C@@H]2CC[C@]2(C)[C@@H](O)CC[C@@H]12 [Dihydrotestosterone, 5α-dihydrotestosterone, reference compound]
FAS mRNA; [8]
  FAS mRNA/GAPDH mRNA level: 8.0
FAS mRNA; [9]
  FAS mRNA/GAPDH mRNA level: 7.1
FAS mRNA; [10]
  FAS mRNA/GAPDH mRNA level: 2.3
FAS mRNA; [11]
  FAS mRNA/GAPDH mRNA level: 3.5*^,#
UCP-1 mRNA
  Effect on visceral fat UCP-1 mRNA levels (in words): had hardly any effect on UCP-1 mRNA levels
UCP-1 mRNA; 1 mg/Kg
  UCP-1 mRNA/GAPDH mRNA level in rat visceral fat: 0.8
UCP-1 mRNA; 10 mg/Kg
  UCP-1 mRNA/GAPDH mRNA level in rat visceral fat: 0.9
ORX rats [1]; 1 mg/Kg s.c. once a day
  Prostate weight: 168.6**^,## mg/100 g of body weight
ORX rats [1]; 10 mg/Kg s.c. once a day
  Prostate weight: 216.9*^,## mg/100 g of body weight
ORX rats [1]
  Change in prostate weight (in words): increased dose-dependently
SREBP-1c mRNA; [12]
  SREBP-1c mRNA/GAPDH mRNA level: 3.4
SREBP-1c mRNA; [13]
  SREBP-1c mRNA/GAPDH mRNA level: 3.2
SREBP-1c mRNA; [14]
  SREBP-1c mRNA/GAPDH mRNA level: 1.8
SREBP-1c mRNA; [15]
  SREBP-1c mRNA/GAPDH mRNA level: 2.2
ORX rats [2]
  Effect on FSH levels (in words): inhibited to levels observed in the untreated control group
CPT-1 mRNA; [16]
  CPT-1 mRNA/GAPDH mRNA level: 1.3
CPT-1 mRNA; [17]
  CPT-1 mRNA/GAPDH mRNA level: 0.4
CPT-1 mRNA; [18]
  CPT-1 mRNA/GAPDH mRNA level: 1.7
CPT-1 mRNA; [19]
  CPT-1 mRNA/GAPDH mRNA level: 0.8
PSA mRNA; 1 mg/Kg s.c. once a day
  PSA mRNA/GAPDH mRNA in prostates: 211.4**^,##
PSA mRNA; 10 mg/Kg s.c. once a day
  PSA mRNA/GAPDH mRNA in prostates: 209.8**^,##
PSA mRNA; 1 and 10 mg/Kg
  Increase of prostate PSA mRNA level in comparison with the sham treatment group: about 1.8 fold
ORX rats [3]; 1 mg/Kg
  Femoral BMD: 472.0 mg/mL
ORX rats [3]; 10 mg/Kg
  Femoral BMD: 473.6 mg/mL
ORX rats [4]; 1 mg/Kg
  Vertebral BMD: 768.4 mg/mL
ORX rats [4]; 10 mg/Kg
  Vertebral BMD: 763.2 mg/mL
ORX rats [4]; 1 and 10 mg/Kg
  Effect on vertebral BMD (in words): did not have an effect on vertebral BMD
ORX rats [5]
  Effect on LH levels (in words): inhibited LH levels
ORX rats [6]
  Effect on cholesterol levels (in words): lowered cholesterol levels
ORX rats [7]
  Effect on insulin levels (in words): increased the insulin levels

## CC(=O)[C@H]1CCC2C3CCc4c(C)cccc4C3CC[C@@]21C (stereo partly drawn) [Compound of formula (Ia)]
FAS mRNA; liver and visceral fat
  FAS mRNA levels (in words): also lower
FAS mRNA; [8]
  FAS mRNA/GAPDH mRNA level: 0.7
FAS mRNA; [9]
  FAS mRNA/GAPDH mRNA level: 0.5
FAS mRNA; [10]
  FAS mRNA/GAPDH mRNA level: 0.3*
FAS mRNA; [11]
  FAS mRNA/GAPDH mRNA level: 0.6
UCP-1 mRNA
  Effect on visceral fat UCP-1 mRNA levels (in words): this increase was not significant
UCP-1 mRNA; 1 mg/Kg
  UCP-1 mRNA/GAPDH mRNA level in rat visceral fat: 1.7
UCP-1 mRNA; 10 mg/Kg
  UCP-1 mRNA/GAPDH mRNA level in rat visceral fat: 1.5
ORX rats [1]; 1 mg/Kg s.c. once a day
  Prostate weight: 11.1** mg/100 g of body weight
ORX rats [1]; 10 mg/Kg s.c. once a day
  Prostate weight: 13.3** mg/100 g of body weight
ORX rats [1]
  Change in prostate weight (in words): did not increase
SREBP-1c mRNA; liver and visceral fat
  SREBP-1c mRNA levels (in words): lower in both tissues
SREBP-1c mRNA; [12]
  SREBP-1c mRNA/GAPDH mRNA level: 0.8
SREBP-1c mRNA; [13]
  SREBP-1c mRNA/GAPDH mRNA level: 0.6
SREBP-1c mRNA; [14]
  SREBP-1c mRNA/GAPDH mRNA level: 0.8
SREBP-1c mRNA; [15]
  SREBP-1c mRNA/GAPDH mRNA level: 0.5
ORX rats [2]; 1 mg/Kg
  Plasma FSH concentration: 48.7* ng/mL
ORX rats [2]; 10 mg/Kg
  Plasma FSH concentration: 46.3* ng/mL
ORX rats [2]
  Effect on FSH levels (in words): did not have any effect on FSH
CPT-1 mRNA; liver and visceral fat
  CPT-1 mRNA levels (in words): higher in comparison with dihydrotestosterone
CPT-1 mRNA; [16]
  CPT-1 mRNA/GAPDH mRNA level: 3.2**^,#
CPT-1 mRNA; [17]
  CPT-1 mRNA/GAPDH mRNA level: 4.2*
CPT-1 mRNA; [18]
  CPT-1 mRNA/GAPDH mRNA level: 2.0
CPT-1 mRNA; [19]
  CPT-1 mRNA/GAPDH mRNA level: 2.6
PSA mRNA; 1 mg/Kg s.c. once a day
  PSA mRNA/GAPDH mRNA in prostates: 1.0**
PSA mRNA; 10 mg/Kg s.c. once a day
  PSA mRNA/GAPDH mRNA in prostates: 1.2**
PSA mRNA; 1 and 10 mg/Kg
  Change in prostate PSA mRNA levels (in words): no changes observed
ORX rats [3]; 1 mg/Kg
  Femoral BMD: 447.2 mg/mL
ORX rats [3]; 10 mg/Kg
  Femoral BMD: 454.0 mg/mL
ORX rats [3]; 30 mg/Kg
  Femoral BMD: 475.9 mg/mL
ORX rats [4]; 1 mg/Kg
  Vertebral BMD: 769.5 mg/mL
ORX rats [4]; 10 mg/Kg
  Vertebral BMD: 770.3 mg/mL
ORX rats [4]; 30 mg/Kg
  Vertebral BMD: 775.1 mg/mL
ORX rats [5]; 1 mg/Kg
  Plasma LH concentration: 12.6** ng/mL
ORX rats [5]; 10 mg/Kg
  Plasma LH concentration: 19.9*^,## ng/mL
ORX rats [5]
  Effect on LH levels (in words): did not inhibit LH levels, but rather increased LH levels dose-dependently
ORX rats [6]; 1 mg/Kg
  Plasma cholesterol concentration: 66.0 mg/dL
ORX rats [6]; 10 mg/Kg
  Plasma cholesterol concentration: 71.5 mg/dL
ORX rats [6]
  Effect on cholesterol levels (in words): did not have an effect on cholesterol levels
ORX rats [7]; 1 mg/Kg
  Plasma insulin concentration: 1.5 µg/mL
ORX rats [7]; 10 mg/Kg
  Plasma insulin concentration: 2.9 µg/mL
ORX rats [7]
  Effect on insulin levels (in words): this activity was milder
